Measured values as given in article PMC8022280 (ChemMedChem, 2018).
pIC50: −log10 of the molar value.

Experiments:
Wip1 [1] = biological target: T1, Wip1 (Homo sapiens, UniProt O15297); assay: Inhibition of Wip1 phosphatase activity toward the ATM; type: biochemical
T1 sequence (O15297 1-605): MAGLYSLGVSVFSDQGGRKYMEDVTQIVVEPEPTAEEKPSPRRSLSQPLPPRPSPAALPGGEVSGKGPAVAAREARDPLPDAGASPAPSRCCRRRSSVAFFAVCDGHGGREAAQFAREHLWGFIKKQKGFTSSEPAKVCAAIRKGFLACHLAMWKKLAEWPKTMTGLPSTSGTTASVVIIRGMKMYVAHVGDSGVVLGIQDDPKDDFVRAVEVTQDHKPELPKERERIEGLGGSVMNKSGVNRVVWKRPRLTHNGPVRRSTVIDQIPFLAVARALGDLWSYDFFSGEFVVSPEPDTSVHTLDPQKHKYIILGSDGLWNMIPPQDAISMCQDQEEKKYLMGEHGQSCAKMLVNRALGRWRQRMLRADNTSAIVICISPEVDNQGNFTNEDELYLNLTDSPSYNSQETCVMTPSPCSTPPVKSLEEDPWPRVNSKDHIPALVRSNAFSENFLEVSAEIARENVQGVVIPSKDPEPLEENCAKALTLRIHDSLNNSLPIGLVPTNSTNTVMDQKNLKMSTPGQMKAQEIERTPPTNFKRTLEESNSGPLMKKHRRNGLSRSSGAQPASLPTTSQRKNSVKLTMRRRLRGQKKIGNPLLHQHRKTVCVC

Wip1 [2] = biological target: T1, Wip1; assay: Quantitative ELISA of γH2AX levels in MCF7 cells; type: cell-based; details: no IR (Figure S2)

SMILES: COC(=O)[C@H](CCCCNC(=O)[C@H](CC1CCCCC1)NC(=O)c1cccs1)NC(=O)c1cccc(O)c1 [Compound 1, Methyl-N^6-((S)-3-cyclohexyl-2-(thiophene-2-carboxamido)propanoyl)-N^2-(3-hydroxybenzoyl)-L-lysinate]
- pIC50 (Wip1 [1]): 6.04
- increase in γH2AX levels in the absence of exposure to IR (Wip1 [2]): did not produce a detectable increase

SMILES: Cc1ncc(Cl)cc1NCc1ccc(C(=O)N[C@@H](CC2CCCC2)C(=O)NC2CC2)s1 [GSK2830371, reference compound]
- increase in γH2AX levels in the absence of exposure to IR (Wip1 [2]): did not produce a detectable increase
